From ChEMBL document CHEMBL1152207, “Leucettamol A: a new inhibitor of Ubc13-Uev1A interaction isolated from a marine sponge, Leucetta aff. microrhaphis” (Bioorg Med Chem Lett, 2008) come the findings set out here.

Experiment [1] has as its target Ubiquitin-conjugating enzyme E2 N/Ubiquitin-conjugating enzyme E2 variant 1 (Homo sapiens, UniProt P61088+Q13404). The experiment is described as follows: (§1) Inhibition of human Ubc13-Uev1A interaction expressed in Escherichia BL21 after 15 mins by ELISA. For orientation: ELISA stands for enzyme-linked immunosorbent assay.
Experiment [2] deals with Ubiquitin-conjugating enzyme E2 N/Ubiquitin-conjugating enzyme E2 variant 1 (Homo sapiens) (UniProt Q13404+P61088). Described as §1.
Experiment [3] has as its target T1, Ubiquitin-conjugating enzyme E2 N (Homo sapiens) (UniProt P61088).
T1 sequence (whole entry): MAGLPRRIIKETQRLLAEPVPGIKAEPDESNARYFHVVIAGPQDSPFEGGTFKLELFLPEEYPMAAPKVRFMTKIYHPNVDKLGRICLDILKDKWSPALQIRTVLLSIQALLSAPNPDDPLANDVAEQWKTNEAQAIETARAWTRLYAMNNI
Put plainly: Inhibition of Ubc13-[…] interaction by ELISA.

Active and inactive are the calls of the source. No cut-off for these calls is given here.

On to `C[C@@H](N)[C@@H](O)CCCCCCCCCCCCCCCCCCCCCCCC[C@H](O)[C@@H](C)N`, for which inhibition in experiment [1] was half-maximal at 8.25 µM (IC50).
As for `CC(=O)N[C@H](C)[C@H](C/C=C\C/C=C\C/C=C\C/C=C\C/C=C\C/C=C\CCCCCC[C@H](OC(C)=O)[C@@H](C)NC(C)=O)OC(C)=O`, the result in experiment [2] was inactive.
Regarding `C[C@@H](N)[C@@H](O)C/C=C\C/C=C\C/C=C\C/C=C\C/C=C\C/C=C\CCCCCC[C@H](O)[C@@H](C)N` [LEUCETTAMOL A], in experiment [3], the result was inactive. Further, the IC50 (usually the concentration at which inhibition is half-maximal) in experiment [1] was 106 µM.
